From patent US12077503B2, “Substituted cyclic amides and their use as herbicides” (FMC CORPORATION, priority 2015, dated 2024)

What was measured:
Type in all cases: in vivo
corn (Zea mays) [1] = assay: Test G Post-Emergence Protocol; details: Zea mays, post-emergence, 312 h
Procedure, shortened: (§1)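 Sow in soil; grow 8 d (24/16 °C, 14 h light, 65% humidity); spray 15.625/62.5/250 g/ha in acetone:water 50:50 + 0.5% Tween 20; grow on, water twice daily; score damage 0–100 at 13 d.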

[2] = test system: ivy-leaved morning glory (Ipomoea hederacea); assay: Test G Post-Emergence Protocol; details: Ipomoea, post-emergence, 312 h
Procedure, shortened: as §1

[3] = test system: redroot pigweed (Amaranthus retroflexus); assay: Test G Post-Emergence Protocol; details: Amaranthus retroflexus, post-emergence, 312 h
Procedure, shortened: as §1

[4] = test system: giant foxtail (Setaria faberi); assay: Test G Post-Emergence Protocol; details: Setaria faberi, post-emergence, 312 h
Procedure, shortened: as §1

[5] = test system: velvetleaf (Abutilon theophrasti); assay: Test G Post-Emergence Protocol; details: Abutilon theophrasti, post-emergence, 312 h
Procedure, shortened: as §1

[6] = test system: barnyardgrass (Echinochloa crus-galli); assay: Test G Post-Emergence Protocol; details: Echinochloa crus-galli, post-emergence, 312 h
Procedure, shortened: as §1

corn (Zea mays) [7] = assay: Test G Pre-Emergence Protocol; details: Zea mays, pre-emergence, 312 h, evaluated after 13 days
Procedure, shortened: (§2)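 Scores are visual damage ratings from 0 (no damage) to 100 (total plant kill), taken 13 days after treatment. Compound was sprayed one day post-sowing at 15.625, 62.5 or 250 g/ha in 50:50 acetone/water with 0.5% Tween 20.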

[8] = test system: ivy-leaved morning glory (Ipomoea hederacea); assay: Test G Pre-Emergence Protocol; details: Ipomoea, pre-emergence, 312 h, evaluated after 13 days
Procedure, shortened: as §2

[9] = test system: redroot pigweed (Amaranthus retroflexus); assay: Test G Pre-Emergence Protocol; details: Amaranthus retroflexus, pre-emergence, 312 h, evaluated after 13 days
Procedure, shortened: as §2

[10] = test system: giant foxtail (Setaria faberi); assay: Test G Pre-Emergence Protocol; details: Setaria faberi, pre-emergence, 312 h, evaluated after 13 days
Procedure, shortened: as §2

[11] = test system: velvetleaf (Abutilon theophrasti); assay: Test G Pre-Emergence Protocol; details: Abutilon theophrasti, pre-emergence, 312 h, evaluated after 13 days
Procedure, shortened: as §2

[12] = test system: barnyardgrass (Echinochloa crus-galli); assay: Test G Pre-Emergence Protocol; details: Echinochloa crus-galli, pre-emergence, 312 h, evaluated after 13 days
Procedure, shortened: as §2

CN1C[C@@H](c2ccc(C(F)(F)F)cc2)[C@H](C(=O)Nc2nn[nH]n2)C1=O (racemic) [Compound 1612]
0%: plant injury at 15.625 g/ha (corn (Zea mays) [1]; 15.625 g ai/ha, evaluated after 13 days (100=total damage to plant; 0=no damage to plant), read-out: Corn damage rating) | plant injury at 62.5 g/ha (corn (Zea mays) [1]; 62.5 g ai/ha, evaluated after 13 days, read-out: Corn damage rating (100=total damage to plant; 0=no damage to plant)) | plant injury at 250 g/ha (corn (Zea mays) [1]; 250 g ai/ha, evaluated after 13 days, read-out: damage to plant, Corn (100=total damage to plant; 0=no damage to plant)) | pest or weed control at 15.625 g/ha ([2]; 15.625 g ai/ha, evaluated after 13 days (100=total damage to plant; 0=no damage to plant), read-out: Morningglory, Ivy-leaved damage rating) | pest or weed control at 62.5 g/ha ([2]; 62.5 g ai/ha, evaluated after 13 days, read-out: Morningglory, Ivy-leaved damage rating (100=total damage to plant; 0=no damage to plant)) | pest or weed control at 250 g/ha ([2]; 250 g ai/ha, evaluated after 13 days, read-out: damage to plant, Morningglory, Ivy-leaved (100=total damage to plant; 0=no damage to plant)) | pest or weed control at 15.625 g/ha ([3]; 15.625 g ai/ha, evaluated after 13 days (100=total damage to plant; 0=no damage to plant), read-out: Pigweed, Redroot damage rating) | pest or weed control at 62.5 g/ha ([3]; 62.5 g ai/ha, evaluated after 13 days, read-out: Pigweed, Redroot damage rating (100=total damage to plant; 0=no damage to plant)) | pest or weed control at 250 g/ha ([3]; 250 g ai/ha, evaluated after 13 days, read-out: damage to plant, Pigweed, Redroot (100=total damage to plant; 0=no damage to plant)) | pest or weed control at 15.625 g/ha ([4]; 15.625 g ai/ha, evaluated after 13 days (100=total damage to plant; 0=no damage to plant), read-out: Foxtail, Giant damage rating) | pest or weed control at 62.5 g/ha ([4]; 62.5 g ai/ha, evaluated after 13 days, read-out: Foxtail, Giant damage rating (100=total damage to plant; 0=no damage to plant)) | pest or weed control at 250 g/ha ([4]; 250 g ai/ha, evaluated after 13 days, read-out: damage to plant, Foxtail, Giant (100=total damage to plant; 0=no damage to plant)) | pest or weed control at 15.625 g/ha ([5]; 15.625 g ai/ha, evaluated after 13 days (100=total damage to plant; 0=no damage to plant), read-out: Velvetleaf damage rating) | pest or weed control at 62.5 g/ha ([5]; 62.5 g ai/ha, evaluated after 13 days, read-out: Velvetleaf damage rating (100=total damage to plant; 0=no damage to plant)) | pest or weed control at 250 g/ha ([5]; 250 g ai/ha, evaluated after 13 days, read-out: damage to plant, Velvetleaf (100=total damage to plant; 0=no damage to plant)) | pest or weed control at 15.625 g/ha ([6]; 15.625 g ai/ha, evaluated after 13 days (100=total damage to plant; 0=no damage to plant), read-out: Barnyardgrass damage rating) | pest or weed control at 62.5 g/ha ([6]; 62.5 g ai/ha, evaluated after 13 days, read-out: Barnyardgrass damage rating (100=total damage to plant; 0=no damage to plant)) | pest or weed control at 250 g/ha ([6]; 250 g ai/ha, evaluated after 13 days, read-out: damage to plant, Barnyardgrass (100=total damage to plant; 0=no damage to plant)) | plant injury at 15.625 g/ha (corn (Zea mays) [7]; 15.625 g ai/ha, read-out: Corn damage rating (100=total damage to plant; 0=no damage to plant)) | plant injury at 62.5 g/ha (corn (Zea mays) [7]; 62.5 g ai/ha, 100=total damage to plant, 0=no damage to plant, read-out: plant damage rating, Corn) | plant injury at 250 g/ha (corn (Zea mays) [7]; 250 g ai/ha, read-out: Corn damage rating (100=total damage to plant; 0=no damage to plant)) | pest or weed control at 15.625 g/ha ([8]; 15.625 g ai/ha, read-out: Morning-glory, Ivy-leaved damage rating (100=total damage to plant; 0=no damage to plant)) | pest or weed control at 62.5 g/ha ([8]; 62.5 g ai/ha, 100=total damage to plant, 0=no damage to plant, read-out: plant damage rating, Morningglory, Ivy-leaved) | pest or weed control at 250 g/ha ([8]; 250 g ai/ha, read-out: Morningglory, Ivy-leaved damage rating (100=total damage to plant; 0=no damage to plant)) | pest or weed control at 15.625 g/ha ([9]; 15.625 g ai/ha, read-out: Pigweed, Redroot damage rating (100=total damage to plant; 0=no damage to plant)) | pest or weed control at 62.5 g/ha ([9]; 62.5 g ai/ha, 100=total damage to plant, 0=no damage to plant, read-out: plant damage rating, Pigweed, Redroot) | pest or weed control at 250 g/ha ([9]; 250 g ai/ha, read-out: Pigweed, Redroot damage rating (100=total damage to plant; 0=no damage to plant)) | pest or weed control at 15.625 g/ha ([10]; 15.625 g ai/ha, read-out: Foxtail, Giant damage rating (100=total damage to plant; 0=no damage to plant)) | pest or weed control at 62.5 g/ha ([10]; 62.5 g ai/ha, 100=total damage to plant, 0=no damage to plant, read-out: plant damage rating, Foxtail, Giant) | pest or weed control at 250 g/ha ([10]; 250 g ai/ha, read-out: Foxtail, Giant damage rating (100=total damage to plant; 0=no damage to plant)) | pest or weed control at 15.625 g/ha ([11]; 15.625 g ai/ha, read-out: Velvetleaf damage rating (100=total damage to plant; 0=no damage to plant)) | pest or weed control at 62.5 g/ha ([11]; 62.5 g ai/ha, 100=total damage to plant, 0=no damage to plant, read-out: plant damage rating, Velvetleaf) | pest or weed control at 250 g/ha ([11]; 250 g ai/ha, read-out: Velvetleaf damage rating (100=total damage to plant; 0=no damage to plant)) | pest or weed control at 15.625 g/ha ([12]; 15.625 g ai/ha, read-out: Barnyard grass damage rating (100=total damage to plant; 0=no damage to plant)) | pest or weed control at 62.5 g/ha ([12]; 62.5 g ai/ha, 100=total damage to plant, 0=no damage to plant, read-out: plant damage rating, Barnyardgrass) | pest or weed control at 250 g/ha ([12]; 250 g ai/ha, read-out: Barnyardgrass damage rating (100=total damage to plant; 0=no damage to plant))
